We go through two molecules from US6455567B1, “Method of treatment” (Pfizer Inc., priority 1994, dated 2002).

Test [1] relates to oedema in the rat hind paw. To be noted: intravenous, saphenous nerve stimulation; cited from earlier work.
In test [2] the test system is neurogenic inflammation in dura mater. The following applies: in vivo; cited from earlier work.
Test [3] deals with vasodilation in the rat hind paw. Description: Vasodilation (skin blood flow) in the rat hind paw after saphenous nerve stimulation, method of Kajekar et al. It counts as in vivo. The following applies: intravenous. The method, then: The test compound is administered intravenously at different doses and the results are recorded as the change in the increase in skin blood flow.

`CNS(=O)(=O)Cc1ccc2[nH]cc(C[C@H]3CCCN3C)c2c1` [CP-122,288, (R)-5-(methylaminosulphonylmethyl)-3-(N-methylpyrrolidin-2-ylmethyl)-1H-indole]: the “lowest administered amount with significant effect on ratio of plasma extravasation in the stimulated/unstimulated hind paw” value in test [1] is 2e-14 mol/kg. For the same molecule, the “potency against neurogenic inflammation in dura mater” value in test [2] was “exhibit potency against neurogenic inflammation”. For the same molecule, in test [3], the “lowest dose with significant effect on the increase in skin blood flow (vasodilation)” value stood at 2e-12 mol/kg.

For the molecule `CNS(=O)(=O)Cc1ccc2[nH]cc(C[C@H]3CCCN3)c2c1` [CP-122,638, (R)-5-(methylaminosulphonylmethyl)-3-(pyrrolidin-2-ylmethyl)-1H-indole], in test [2], the “potency against neurogenic inflammation in dura mater” value was “exhibit potency against neurogenic inflammation”.
